Experiments:
[1] = Release rate during hair coloring (GC content after mixing developer mass with ammoniacal dye solution); assay type: physicochemical
Experimental: To determine the hydrolysis rate the three depot preparations DP Example 8, DP Example 9 and DP Example 10 were added to the developer mass in a concentration of in each case 0.3%. The ammoniacal dye solution, which consists of 2 to 16% ammonia and/or substitutes such as, for example, alkanolamines, in particular monoethanolamine, water, thickeners, emulsifier, bodying agents, reactive dyes, solvents, flexing agents, stabilizers and preservatives, is then added to the developer mass in the ratio 1:1. Samples are then taken from the hair dye solution at defined time intervals, neutralized and extracted with solvent, and the content of depot preparation and released aldehyde is determined by means of gas chromatography using an internal and external standard.

[2] = Storage stability in soap formulation; assay type: physicochemical; conditions: stored in the dark about one month at room temperature
Excerpt: (§1) (Amount after storage/Amount before storage)*100%=Storage stability [%]
The separate samples are then divided into portions.
The soap formulations A to F were stored in the dark for about one-month at room temperature.

[3] = Storage stability in powder laundry detergent; conditions: after one month storage
Excerpt: The storage stability of a fragrance or of a depot preparation is defined by the percentage of substance still present after storage. (Amount after storage/Amount before storage)*100%=Storage stability [%]
For the determination and for the comparison of the storage stability the depot preparation (DP) consisting of one or more acylals and the corresponding aldehydes (AL) are incorporated into separate samples. (SDP and SAL) of the same formulation of a consumer product, such as, for example, laundry detergent, shampoo or soap. The separate samples are then divided into portions. One portion of the sample SDP and SAL is subjected immediately to a suitable extraction and analytical measurement in order to determine the amount of depot preparation or aldehyde prior to storage. In the analytical investigation by, for example, gas chromatography, a suitable standard is used for quantification. The second portion is subjected to storage at elevated temperature for a defined period and then extracted and quantified using the same methods.
The laundry detergents A and B were used for washing or examined analytically both directly and after storage for four weeks.

[4] = Storage stability in hair colorant developer mass; assay type: physicochemical
Experimental: as §1
The formulation of the developer mass typically comprises water, hydrogen peroxide, acids, such as, for example, phosphoric acid, citric acid etc., thickeners, emulsifiers, preservatives, solvents and further auxiliaries. 1% of DP Example 5 is added to the formulation of the developer mass.
The developer formulation, which comprises 1% of DP Example 5, is stored for one and a half months at room temperature.

[5] = 1 min after mixing developer mass (0.3% each DP) 1:1 with ammoniacal dye solution
[6] = 5 min after mixing developer mass (0.3% each DP) 1:1 with ammoniacal dye solution
[7] = 10 min after mixing developer mass (0.3% each DP) 1:1 with ammoniacal dye solution
[8] = 20 min after mixing developer mass (0.3% each DP) 1:1 with ammoniacal dye solution
[9] = 30 min after mixing developer mass (0.3% each DP) 1:1 with ammoniacal dye solution

| SMILES | Relative GC content [%] [1, 5] | Relative GC content [%] [1, 6] | Relative GC content [%] [1, 7] | Relative GC content [%] [1, 8] | Relative GC content [%] [1, 9] | Storage stability [%] [2] | further results |
| --- | --- | --- | --- | --- | --- | --- | --- |
| CCCCCCCCCC(C)C(OC(C)=O)OC(C)=O (stereo not shown) [DP Example 10, 1-(Acetyloxy)-2-methylundecyl acetate] | 48.2% | 5.1% | 2.0% | 0.0% | 0.0% |  |  |
| CCCCCCCCCC(C)C=O (stereo not shown) [2-Methylundecanal, reference compound] | 2.8% | 32.8% | 47.1% | 20.7% | 16.4% |  |  |
| CCCCCCCCCC=O [Aldehyde C10, Decanal, reference compound] |  |  |  |  |  | 32% |  |
| CCCCCCC(OC(C)=O)OC(C)=O [DP Example 8, 1-(Acetyloxy)heptyl acetate] | 22.9% | 0.0% | 0.0% | 0.0% | 0.0% |  |  |
| CCCC(=O)OC(OC(=O)CCC)C1CC=C(CCC=C(C)C)CC1 (stereo not shown) [DP Example 3, (Butyryloxy) [4-(4-methyl-3-pentenyl)-3-cyclohexen-1-yl]methyl butyrate] |  |  |  |  |  |  | Storage stability [3]: 93% |
| CCCC(=O)OC(OC(=O)CCC)c1ccccc1 [DP Example 5, (Butyryloxy)(phenyl)methyl butyrate] |  |  |  |  |  | 93% | Stability [%] 0 days ([4]; 1% in developer mass, room temperature, 0 days): 100%; Stability [%] 13 days ([4]; 1% in developer mass, room temperature, 13 days): 100%; Stability [%] 28 days ([4]; 1% in developer mass, room temperature, 28 days): 98%; Stability [%] 42 days ([4]; 1% in developer mass, room temperature, 42 days): 100%; color, odor and analytical stability ([4]; developer mass, one and half months at room temperature): color, odor and analytically stable |
| O=Cc1ccccc1 [Benzaldehyde, reference compound] |  |  |  |  |  | 45% |  |
| CCCC(=O)OC(CCc1ccc(C(C)(C)C)cc1)OC(=O)CCC [DP Example 6, 3-(4-tert-Butylphenyl)-1-(butyryloxy)propyl butyrate] |  |  |  |  |  | 93% |  |
| CCCCCCCCCC(OC(=O)CCCCCC)OC(=O)CCCCCC [DP Example 7, 1-(Heptanoyloxy)decyl heptanoate] |  |  |  |  |  | 95% |  |
| CC(C)=CCCC1=CCC(C=O)CC1 (stereo not shown) [Vertomugal, 1-Formyl-4-(4-methyl-3-pentenyl)-3-cyclohexene, reference compound] |  |  |  |  |  |  | Storage stability [3]: 34% |
| CC(C)(C)c1ccc(CCC=O)cc1 [Bourgeonal, 4-tert-Butyldihydrocinnamaldehyde, reference compound] |  |  |  |  |  | 27% |  |
| CC(=O)OC(OC(C)=O)C1CCC(C)=CC1C (stereo not shown) [DP Example 9, (Acetyloxy)(2,4-dimethyl-3-cyclohexen-1-yl)methyl acetate] | 28.9% | 2.5% | 0.5% | 0.0% | 0.0% |  |  |
| CCCCCCC=O [Aldehyde C7, heptanal, reference compound] | 1.4% | 17.1% | 19.3% | 12.2% | 11.4% |  |  |
| CC1=CC(C)C(C=O)CC1 (stereo not shown) [Vertocitral, reference compound] | 2.1% | 33.6% | 33.6% | 19.3% | 15.7% |  |  |

Source: US8268772B2, “Depot preparations” (Symrise AG, priority 2001, dated 2012)
